# Laboratory results reported in US8034580B2, “Determining presence of antibiotic in a fluid” (DSM IP Assets B.V., priority 2003, dated 2011).
# What was measured:
# Format in all cases: cell-based
# [1] = test system: microorganism of Delvotest® MCS test medium; assay: Delvotest MCS microbial inhibition test, sensitivity for different antibiotics, plate test or tube test (Example 2)
# Procedure: […] The sensitivity for different antibiotics was determined by investigating two sets of six experiments using either a plate test or a tube test system. The sensitivity was determined by reading the test at the moment at which an antibiotic-free control changed color.
# [2] = test system: microorganism of Delvotest® MCS test medium; assay: Production scale Delvotest MCS microbiological inhibition test, sensitivity for different antibiotics (Example 4)
# Procedure: Two series of test systems were prepared on production scale. The first series is a commercially available Delvotest® MCS and the second series is as the first with Bromocresol Purple replaced with Bromothymol Blue (160 mg·l^−1). The sensitivity for different antibiotics was determined reading the test at the moment at which an antibiotic-free control changed color. The results are in the Table below (sensitivity values in ppb).
# [3] = test system: microorganism of Delvotest® MCS test medium; assay: Delvotest MCS microbial inhibition test, sensitivity for penicillin G (Example 1)
# Procedure: Commercially available Delvotest® MCS, prepared according to the methods described in EP 0005891, was adapted by the replacement of the indicator Bromocresol Purple by Bromothymol Blue (160 mg·l^−1). The sensitivity for penicillin G was determined by investigating samples containing different concentrations of penicillin G in different test systems. The results are summarized in the Table below (sensitivity values in ppb).
# [4] = test system: microorganism of Delvotest® MCS test medium; assay: Delvotest MCS type test systems with equal indicator concentration, sensitivity for penicillin G (Example 3)
# Procedure: Two test systems were prepared. The first system differs only from a commercially available Delvotest® MCS in that the concentration of Bromocresol Purple is 160 mg·l^−1, and the second series is as the first with Bromocresol Purple replaced with Bromothymol Blue (160 mg·l^−1). The sensitivity for penicillin G was determined reading the test at the moment at which an antibiotic-free control changed color. From the results as shown in the Table below (sensitivity values in ppb) it can be seen that the sensitivity of Bromothymol Blue is better then that of Bromocresol Purple at the same concentrations of indicator.
# [5] = indicator Bromocresol Purple (BP), experiment # 0
# [6] = indicator Bromothymol Blue (160 mg·l^−1), plate test, experiment # 1
# [7] = indicator Bromothymol Blue (160 mg·l^−1), plate test, experiment # 2
# [8] = indicator Bromothymol Blue (160 mg·l^−1), plate test, experiment # 3
# [9] = indicator Bromothymol Blue (160 mg·l^−1), plate test, experiment # 4
# [10] = indicator Bromothymol Blue (160 mg·l^−1), plate test, experiment # 5
# [11] = indicator Bromothymol Blue (160 mg·l^−1), plate test, experiment # 6
# [12] = indicator Bromothymol Blue (160 mg·l^−1), tube test, experiment # 7
# [13] = indicator Bromothymol Blue (160 mg·l^−1), tube test, experiment # 8
# [14] = indicator Bromothymol Blue (160 mg·l^−1), tube test, experiment # 9
# [15] = indicator Bromothymol Blue (160 mg·l^−1), tube test, experiment # 10
# [16] = indicator Bromothymol Blue (160 mg·l^−1), tube test, experiment # 11
# [17] = indicator Bromothymol Blue (160 mg·l^−1), tube test, experiment # 12
# [18] = indicator Bromocresol Purple, Batch #1, three weeks after production
# [19] = indicator Bromothymol Blue (160 mg·l^−1), Batch #1, three weeks after production
Compound,"sensitivity [1, 5]","sensitivity [1, 6]","sensitivity [1, 7]","sensitivity [1, 8]","sensitivity [1, 9]","sensitivity [1, 10]","sensitivity [1, 11]","sensitivity [1, 12]","sensitivity [1, 13]","sensitivity [1, 14]","sensitivity [1, 15]","sensitivity [1, 16]","sensitivity [1, 17]","sensitivity [2, 18]","sensitivity [2, 19]",further results
Neomycin,600 ppb,100 ppb,100 ppb,100 ppb,100 ppb,100 ppb,100 ppb,200 ppb,200 ppb,200 ppb,200 ppb,200 ppb,200 ppb,400 ppb,200 ppb,
Nc1ccc(S(=O)(=O)Nc2ncccn2)cc1 [Sulfadiazine],50 ppb,50 ppb,50 ppb,50 ppb,50 ppb,50 ppb,50 ppb,50 ppb,50 ppb,50 ppb,50 ppb,50 ppb,50 ppb,,,"sensitivity with Bromothymol Blue in comparison with Bromocresol purple ([1]; comparison of the two indicators, in words): identical"
CC1(C)S[C@@H]2[C@H](NC(=O)[C@H](N)c3ccccc3)C(=O)N2[C@H]1C(=O)O [Ampicillin],8 ppb,2 ppb,2 ppb,2 ppb,2 ppb,2 ppb,2 ppb,2 ppb,2 ppb,2 ppb,2 ppb,2 ppb,2 ppb,6 ppb,2 ppb,
Cc1onc(-c2ccccc2Cl)c1C(=O)N[C@@H]1C(=O)N2[C@@H]1SC(C)(C)[C@@H]2C(=O)O [Cloxacillin],40 ppb,10 ppb,10 ppb,10 ppb,10 ppb,10 ppb,10 ppb,20 ppb,20 ppb,20 ppb,20 ppb,20 ppb,20 ppb,40 ppb,20 ppb,
CC(=O)OCC1=C(C(=O)O)N2C(=O)[C@@H](NC(=O)CSc3ccncc3)[C@H]2SC1 [Cephapirin],8 ppb,2 ppb,2 ppb,4 ppb,6 ppb,2 ppb,4-6 ppb,4 ppb,4 ppb,4 ppb,4 ppb,4 ppb,4 ppb,8 ppb,4 ppb,
CC1(C)S[C@@H]2[C@H](NC(=O)Cc3ccccc3)C(=O)N2[C@H]1C(=O)O [Penicillin G],3 ppb,1 ppb,2 ppb,1 ppb,1 ppb,1-2 ppb,1 ppb,2 ppb,2 ppb,2 ppb,2 ppb,2 ppb,2 ppb,3 ppb,2 ppb,"sensitivity ([3]; indicator Bromocresol Purple, Penicillin G concentrations of 0, 1, 2, 3 and 4 ppb investigated): 3 ppb; sensitivity ([3]; indicator Bromocresol Purple, Penicillin G concentrations of 0, 2, 4 and 6 ppb investigated): 4 ppb; sensitivity ([3]; indicator Bromothymol Blue (160 mg·l^−1), Penicillin G concentrations of 0, 1, 2, 3 and 4 ppb investigated): 2 ppb; sensitivity ([3]; indicator Bromothymol Blue (160 mg·l^−1), Penicillin G concentrations of 0, 2, 4 and 6 ppb investigated): 2 ppb; sensitivity ([2]; indicator Bromocresol Purple, Batch #1, immediately after production): 3 ppb; sensitivity ([2]; indicator Bromothymol Blue (160 mg·l^−1), Batch #1, immediately after production): 2 ppb; sensitivity ([4]; indicator Bromocresol Purple (160 mg·l^−1)): 3 ppb; sensitivity ([4]; indicator Bromothymol Blue (160 mg·l^−1)): 2 ppb"
CC1(C)S[C@@H]2[C@H](NC(=O)[C@H](N)c3ccc(O)cc3)C(=O)N2[C@H]1C(=O)O [Amoxicillin],8 ppb,4 ppb,2 ppb,2 ppb,2 ppb,2-4 ppb,2 ppb,4 ppb,4 ppb,4 ppb,4 ppb,4 ppb,4 ppb,8 ppb,4 ppb,
